Reference: ChEMBL document CHEMBL4828715, “Discovery, Structure-Activity Relationships, and In Vivo Evaluation of Novel Aryl Amides as Brain Penetrant Adaptor Protein 2-Associated Kinase 1 (AAK1) Inhibitors for the Treatment of Neuropathic Pain” (J Med Chem, 2021)
Values after ≈ are worked out from the molar mass of the structure shown. Active and inactive are the calls of the source. No cut-off for these calls is given here.

What was measured:
[1] = biological target: Cyclin-G-associated kinase (Homo sapiens, UniProt O14976); test: Inhibition of wild-type human partial length GAK (G13 to Y338 residues) expressed in bacterial expression system by Kinomescan method
Rattus norvegicus [2] = test: Antinociceptive activity in Sprague-Dawley rat model of chronic constriction injury-induced neuropathic pain assessed as reduction in thermal hyperalgesia 30 mg/kg, sc by Von Frey test relative to control; assay type: functional; design: scale not given: the % may be the effect or the level left
[3] = biological target: AP2-associated protein kinase 1 (Mus musculus) (UniProt Q3UHJ0); test: In vivo inhibition of AAK1 in C57BL6 mouse assessed as suppression of mu2 phosphorylation in brain lysate at 3 mg/kg, sc measured after 30 mins by Western blot analysis relative to control; assay type: functional, organism-based
[4] = biological target: AP2-associated protein kinase 1 (Mus musculus) (UniProt Q3UHJ0); test: In vivo inhibition of AAK1 in C57BL6 mouse assessed as suppression of mu2 phosphorylation in brain lysate at 60 mg/kg, sc measured after 30 mins by Western blot analysis relative to control; assay type: functional, organism-based
[5] = biological target: Sodium-dependent noradrenaline transporter (Homo sapiens, UniProt P23975); test: Inhibition of NET (unknown origin)
[6] = Drug concentration in brain of Sprague-Dawley rat model of chronic constriction injury-induced neuropathic pain at 3 mg/kg, sc; assay type: ADME, organism-based; conditions: in vivo, read-out: Ct
[7] = biological target: Phosphatidylinositol 4-phosphate 5-kinase type-1 alpha (Homo sapiens) (UniProt Q99755); test: Inhibition of wild-type human full length PIP5K1A (M1 to H562 residues) expressed in bacterial expression system assessed as residual binding level at 1 uM by Kinomescan method relative to control
[8] = Drug concentration in plasma of C57BL6 mouse at 30 mg/kg, sc; assay type: ADME, organism-based; conditions: in vivo
[9] = biological target: Serine/threonine-protein kinase RIO2 (Homo sapiens) (UniProt Q9BVS4); test: Inhibition of wild-type human partial length RIOK2 (M1 to D313 residues) expressed in mammalian expression system assessed as residual binding level at 1 uM by Kinomescan method relative to control
[10] = Unbound brain-to-plasma concentration ratio in Sprague-Dawley rat model of chronic constriction injury-induced neuropathic pain at 60 mg/kg, sc measured after 240 mins; assay type: ADME, organism-based; conditions: read-out: K(p,uu,brain)
Mus musculus [11] = test: Antinociceptive activity against formalin-induced nociceptive behavior in C57BL6 mouse assessed as reduction in time spent phase 1 hind paw licking/biting at 30 mg/kg, sc administered 60 mins prior to formalin challenge by formalin test; assay type: functional; conditions: 1 h
[12] = biological target: T1, MAP kinase-interacting serine/threonine-protein kinase 1 (Homo sapiens, UniProt Q9BUB5); test: Inhibition of wild-type human full length MKNK1 (M1 to L424 residues) expressed in mammalian expression system assessed as residual binding level at 1 uM by Kinomescan method relative to control
[13] = biological target: T1, MAP kinase-interacting serine/threonine-protein kinase 1; test: Inhibition of wild-type human full length MKNK1 (M1 to L424 residues) expressed in mammalian expression system by Kinomescan method
[14] = Unbound drug concentration in brain of Sprague-Dawley rat model of chronic constriction injury-induced neuropathic pain at 3 mg/kg, sc; assay type: ADME, organism-based; conditions: in vivo
[15] = biological target: Phosphatidylinositol 5-phosphate 4-kinase type-2 beta (Homo sapiens) (UniProt P78356); test: Inhibition of wild-type human full length PIP5K2B (M1 to T416 residues) expressed in bacterial expression system assessed as residual binding level at 1 uM by Kinomescan method relative to control
[16] = biological target: AP2-associated protein kinase 1 (Mus musculus) (UniProt Q3UHJ0); test: In vivo inhibition of AAK1 in C57BL6 mouse assessed as suppression of mu2 phosphorylation in brain lysate at 60 mg/kg, sc measured after 1 hr by Western blot analysis relative to control; assay type: functional, organism-based
[17] = Permeability of the compound at pH 5.5 incubated for 4 hrs by PAMPA-based UV spectrophotometry; assay type: ADME; conditions: read-out: permeability
[18] = Aqueous solubility of the compound at pH 1; assay type: physicochemical
[19] = Metabolic stability in rat liver microsomes assessed as parent compound remaining at 0.5 uM incubated for 10 mins in presence of NADPH by LC-MS/MS analysis; assay type: ADME, Microsome; conditions: read-out: Stability
[20] = Drug concentration in plasma of C57BL6 mouse at 0.3 mg/kg, sc; assay type: ADME, organism-based; conditions: in vivo
Mus musculus [21] = test: Antinociceptive activity against formalin-induced nociceptive behavior in C57BL6 mouse assessed as reduction in phase 1 hind paw flinching at 30 mg/kg, sc administered 60 mins prior to formalin challenge by formalin test; assay type: functional, organism-based
[22] = biological target: SRSF protein kinase 1 (Homo sapiens) (UniProt Q96SB4); test: Inhibition of wild-type human full length SRPK1 (M1 to S655 residues) expressed in bacterial expression system assessed as residual binding level at 1 uM by Kinomescan method relative to control
[23] = Aqueous solubility of the compound at pH 7.4; assay type: physicochemical
[24] = biological target: G protein-coupled receptor kinase 4 (Homo sapiens) (UniProt P32298); test: Inhibition of wild-type human full length GRK4 (M1 to C578 residues) expressed in bacterial expression system assessed as residual binding level at 1 uM by Kinomescan method relative to control
[25] = Drug concentration in Sprague-Dawley rat plasma at 10 mg/kg, sc measured after 190 mins; assay type: ADME, organism-based
[26] = Unbound drug concentration in plasma of Sprague-Dawley rat model of chronic constriction injury-induced neuropathic pain at 1 mg/kg, sc; assay type: ADME, organism-based; conditions: in vivo
[27] = Drug concentration in brain of Sprague-Dawley rat model of chronic constriction injury-induced neuropathic pain at 30 mg/kg, sc; assay type: ADME, organism-based; conditions: in vivo, read-out: Ct
Rattus norvegicus [28] = test: Reversal of chronic constriction injury-induced cold allodynia in Sprague-Dawley rat model of neuropathic pain at 60 mg/kg, sc measured up to 180 mins relative to control; assay type: functional; conditions: time min <=180
Mus musculus [29] = test: Antinociceptive activity against formalin-induced nociceptive behavior in C57BL6 mouse assessed as reduction in phase 2 hind paw licking/biting at 10 mg/kg, sc administered 60 mins prior to formalin challenge by formalin test; assay type: functional, organism-based
[30] = biological target: T2, BMP-2-inducible protein kinase (Homo sapiens, UniProt Q9NSY1); test: Inhibition of wild-type human partial length BIKE (S34 to N329 residues) expressed in bacterial expression system by Kinomescan method
[31] = Unbound drug concentration in brain of Sprague-Dawley rat model of chronic constriction injury-induced neuropathic pain at 30 mg/kg, sc; assay type: ADME, organism-based; conditions: in vivo
[32] = biological target: T2, BMP-2-inducible protein kinase; test: Inhibition of wild-type human partial length BIKE (S34 to N329 residues) expressed in bacterial expression system assessed as residual binding level at 1 uM by Kinomescan method relative to control
[33] = biological target: Sodium-dependent serotonin transporter (Homo sapiens, UniProt P31645); test: Inhibition of SERT (unknown origin)
[34] = biological target: Alpha-2A adrenergic receptor (Homo sapiens, UniProt P08913); test: Inhibition of alpha 2A adrenergic receptor (unknown origin)
[35] = biological target: AP2-associated protein kinase 1 (Mus musculus) (UniProt Q3UHJ0); test: In vivo inhibition of AAK1 in sc dosed C57BL6 mouse assessed as suppression of mu2 phosphorylation in brain lysate by Western blot analysis; assay type: functional, organism-based
[36] = Ratio of drug concentration in brain to plasma in C57BL6 mouse at 30 mg/kg, sc; assay type: ADME, organism-based; conditions: read-out: BPR

Chain of AP2-associated protein kinase 1 (Mus musculus) (Q3UHJ0 whole entry, looked up): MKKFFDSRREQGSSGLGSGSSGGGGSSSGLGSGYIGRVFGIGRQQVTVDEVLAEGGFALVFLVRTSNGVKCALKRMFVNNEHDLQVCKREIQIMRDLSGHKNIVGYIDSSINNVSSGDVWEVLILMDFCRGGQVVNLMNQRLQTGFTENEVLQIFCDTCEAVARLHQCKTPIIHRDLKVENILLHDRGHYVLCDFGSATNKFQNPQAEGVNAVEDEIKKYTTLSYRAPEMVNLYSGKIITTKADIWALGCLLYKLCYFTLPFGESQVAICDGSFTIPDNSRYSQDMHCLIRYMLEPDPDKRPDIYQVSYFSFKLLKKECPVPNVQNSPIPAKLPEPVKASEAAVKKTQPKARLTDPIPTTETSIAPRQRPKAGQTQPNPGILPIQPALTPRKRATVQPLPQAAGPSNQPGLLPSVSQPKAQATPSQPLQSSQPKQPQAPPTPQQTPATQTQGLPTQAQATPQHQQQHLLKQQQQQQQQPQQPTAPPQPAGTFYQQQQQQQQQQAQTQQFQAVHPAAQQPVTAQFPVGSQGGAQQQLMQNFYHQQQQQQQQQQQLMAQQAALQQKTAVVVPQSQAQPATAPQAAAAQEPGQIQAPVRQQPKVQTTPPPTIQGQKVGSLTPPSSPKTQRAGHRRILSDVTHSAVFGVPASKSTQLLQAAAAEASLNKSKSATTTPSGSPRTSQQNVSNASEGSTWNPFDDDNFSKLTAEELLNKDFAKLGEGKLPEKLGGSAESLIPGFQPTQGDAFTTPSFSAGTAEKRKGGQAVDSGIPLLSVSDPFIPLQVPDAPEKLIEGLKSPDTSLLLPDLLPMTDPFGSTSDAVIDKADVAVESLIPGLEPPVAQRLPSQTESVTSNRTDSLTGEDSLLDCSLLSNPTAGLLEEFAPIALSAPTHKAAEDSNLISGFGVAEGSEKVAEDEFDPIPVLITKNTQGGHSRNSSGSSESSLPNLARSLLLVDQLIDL
Chain of G protein-coupled receptor kinase 4 (Homo sapiens) (P32298 whole entry, looked up, the tested form may be a part): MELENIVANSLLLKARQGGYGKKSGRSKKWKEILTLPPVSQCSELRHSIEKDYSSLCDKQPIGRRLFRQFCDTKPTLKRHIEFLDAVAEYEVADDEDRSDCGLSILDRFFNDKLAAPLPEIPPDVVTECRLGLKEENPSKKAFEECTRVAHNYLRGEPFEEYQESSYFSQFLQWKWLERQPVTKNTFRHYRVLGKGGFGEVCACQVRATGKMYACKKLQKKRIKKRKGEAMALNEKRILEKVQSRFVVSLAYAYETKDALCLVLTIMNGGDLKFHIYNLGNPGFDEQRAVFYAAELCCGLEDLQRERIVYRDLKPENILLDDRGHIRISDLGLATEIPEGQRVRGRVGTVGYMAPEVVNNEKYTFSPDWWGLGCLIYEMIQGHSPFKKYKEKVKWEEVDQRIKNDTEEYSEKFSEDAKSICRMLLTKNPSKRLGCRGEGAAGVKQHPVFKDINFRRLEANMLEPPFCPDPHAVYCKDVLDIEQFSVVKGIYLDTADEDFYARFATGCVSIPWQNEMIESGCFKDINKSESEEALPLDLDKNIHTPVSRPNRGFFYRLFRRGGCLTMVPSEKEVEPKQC
Chain of Serine/threonine-protein kinase RIO2 (Homo sapiens) (Q9BVS4 whole entry, looked up, the tested form may be a part): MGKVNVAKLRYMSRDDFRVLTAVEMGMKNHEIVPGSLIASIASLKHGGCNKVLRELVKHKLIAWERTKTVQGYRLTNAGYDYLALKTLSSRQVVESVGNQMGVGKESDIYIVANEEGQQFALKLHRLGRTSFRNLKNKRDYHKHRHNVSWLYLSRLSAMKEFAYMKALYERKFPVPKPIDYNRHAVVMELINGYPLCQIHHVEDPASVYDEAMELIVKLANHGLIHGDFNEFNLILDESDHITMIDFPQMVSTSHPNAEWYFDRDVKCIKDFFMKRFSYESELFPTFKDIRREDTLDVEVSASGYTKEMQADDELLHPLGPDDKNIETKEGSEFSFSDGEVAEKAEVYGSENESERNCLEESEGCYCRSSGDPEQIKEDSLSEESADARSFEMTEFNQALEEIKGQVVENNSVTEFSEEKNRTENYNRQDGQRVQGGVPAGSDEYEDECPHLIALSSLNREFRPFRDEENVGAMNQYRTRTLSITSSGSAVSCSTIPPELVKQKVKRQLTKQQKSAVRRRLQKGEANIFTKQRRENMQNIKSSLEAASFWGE
Chain of Cyclin-G-associated kinase (O14976 whole entry, the tested form may be a part): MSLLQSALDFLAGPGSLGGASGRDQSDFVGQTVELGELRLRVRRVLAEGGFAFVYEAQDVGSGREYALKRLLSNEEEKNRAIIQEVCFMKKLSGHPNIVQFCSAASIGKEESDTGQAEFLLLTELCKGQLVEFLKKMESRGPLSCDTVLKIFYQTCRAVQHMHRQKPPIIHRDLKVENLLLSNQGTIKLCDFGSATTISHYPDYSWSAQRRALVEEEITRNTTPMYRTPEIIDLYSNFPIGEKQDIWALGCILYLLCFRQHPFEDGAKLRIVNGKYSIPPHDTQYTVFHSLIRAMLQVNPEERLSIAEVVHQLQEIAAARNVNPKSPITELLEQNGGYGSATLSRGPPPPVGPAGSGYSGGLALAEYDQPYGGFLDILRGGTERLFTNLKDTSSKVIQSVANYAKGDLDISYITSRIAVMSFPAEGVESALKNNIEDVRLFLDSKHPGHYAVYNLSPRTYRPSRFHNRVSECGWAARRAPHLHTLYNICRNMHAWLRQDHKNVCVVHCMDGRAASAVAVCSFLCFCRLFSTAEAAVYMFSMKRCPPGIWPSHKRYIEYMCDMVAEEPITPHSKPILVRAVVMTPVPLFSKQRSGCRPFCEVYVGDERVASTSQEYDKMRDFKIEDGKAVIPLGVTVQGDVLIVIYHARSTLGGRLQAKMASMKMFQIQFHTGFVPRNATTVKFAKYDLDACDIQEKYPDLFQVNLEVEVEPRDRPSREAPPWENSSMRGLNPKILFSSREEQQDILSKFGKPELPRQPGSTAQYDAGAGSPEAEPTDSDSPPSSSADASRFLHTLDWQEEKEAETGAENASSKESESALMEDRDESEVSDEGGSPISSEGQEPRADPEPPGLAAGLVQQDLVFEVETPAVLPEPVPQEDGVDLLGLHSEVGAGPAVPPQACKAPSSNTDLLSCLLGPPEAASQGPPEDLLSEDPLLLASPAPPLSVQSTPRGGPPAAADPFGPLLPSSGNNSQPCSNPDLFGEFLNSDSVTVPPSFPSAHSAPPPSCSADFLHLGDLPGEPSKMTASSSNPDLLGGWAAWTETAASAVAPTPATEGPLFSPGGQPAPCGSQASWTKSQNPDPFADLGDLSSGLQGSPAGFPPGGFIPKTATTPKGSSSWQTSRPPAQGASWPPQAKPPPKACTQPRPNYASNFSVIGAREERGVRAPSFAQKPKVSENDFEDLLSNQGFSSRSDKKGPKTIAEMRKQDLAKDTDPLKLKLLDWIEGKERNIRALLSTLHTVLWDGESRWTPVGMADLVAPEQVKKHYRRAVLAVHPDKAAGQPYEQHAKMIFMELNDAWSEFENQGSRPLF
Chain of Phosphatidylinositol 4-phosphate 5-kinase type-1 alpha (Homo sapiens) (Q99755 whole entry, the tested form may be a part): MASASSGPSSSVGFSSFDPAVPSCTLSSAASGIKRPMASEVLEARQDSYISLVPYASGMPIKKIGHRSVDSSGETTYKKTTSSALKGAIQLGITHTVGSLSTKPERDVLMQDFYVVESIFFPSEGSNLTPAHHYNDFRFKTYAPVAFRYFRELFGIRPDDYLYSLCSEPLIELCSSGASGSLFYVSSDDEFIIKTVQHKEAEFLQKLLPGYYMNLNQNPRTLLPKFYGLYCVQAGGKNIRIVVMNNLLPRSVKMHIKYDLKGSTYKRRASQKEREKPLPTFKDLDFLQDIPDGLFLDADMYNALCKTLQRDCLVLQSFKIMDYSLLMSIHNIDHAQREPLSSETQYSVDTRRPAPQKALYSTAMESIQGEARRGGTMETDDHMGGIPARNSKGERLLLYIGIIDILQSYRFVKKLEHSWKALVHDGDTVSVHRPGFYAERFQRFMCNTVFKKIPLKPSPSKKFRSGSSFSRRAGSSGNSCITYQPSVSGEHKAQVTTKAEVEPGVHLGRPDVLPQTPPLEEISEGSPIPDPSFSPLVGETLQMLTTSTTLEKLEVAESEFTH
Chain of Sodium-dependent noradrenaline transporter (P23975 whole entry): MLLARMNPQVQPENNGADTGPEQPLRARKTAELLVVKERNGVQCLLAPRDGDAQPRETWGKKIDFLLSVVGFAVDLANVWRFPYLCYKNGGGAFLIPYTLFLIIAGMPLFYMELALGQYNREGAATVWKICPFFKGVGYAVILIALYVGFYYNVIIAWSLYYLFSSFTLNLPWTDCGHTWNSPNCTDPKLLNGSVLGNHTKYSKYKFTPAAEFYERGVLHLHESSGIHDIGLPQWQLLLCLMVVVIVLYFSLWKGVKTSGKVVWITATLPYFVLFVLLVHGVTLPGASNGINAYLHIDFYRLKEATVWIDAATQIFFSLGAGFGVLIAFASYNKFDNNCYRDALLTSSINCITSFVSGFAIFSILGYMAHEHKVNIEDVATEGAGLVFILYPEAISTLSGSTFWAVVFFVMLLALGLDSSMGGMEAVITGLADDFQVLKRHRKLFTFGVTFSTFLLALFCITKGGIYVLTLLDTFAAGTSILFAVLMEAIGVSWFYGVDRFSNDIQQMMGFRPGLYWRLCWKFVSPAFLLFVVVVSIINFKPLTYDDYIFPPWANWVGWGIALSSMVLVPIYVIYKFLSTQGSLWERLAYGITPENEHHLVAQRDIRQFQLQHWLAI
Chain of Alpha-2A adrenergic receptor (P08913 whole entry): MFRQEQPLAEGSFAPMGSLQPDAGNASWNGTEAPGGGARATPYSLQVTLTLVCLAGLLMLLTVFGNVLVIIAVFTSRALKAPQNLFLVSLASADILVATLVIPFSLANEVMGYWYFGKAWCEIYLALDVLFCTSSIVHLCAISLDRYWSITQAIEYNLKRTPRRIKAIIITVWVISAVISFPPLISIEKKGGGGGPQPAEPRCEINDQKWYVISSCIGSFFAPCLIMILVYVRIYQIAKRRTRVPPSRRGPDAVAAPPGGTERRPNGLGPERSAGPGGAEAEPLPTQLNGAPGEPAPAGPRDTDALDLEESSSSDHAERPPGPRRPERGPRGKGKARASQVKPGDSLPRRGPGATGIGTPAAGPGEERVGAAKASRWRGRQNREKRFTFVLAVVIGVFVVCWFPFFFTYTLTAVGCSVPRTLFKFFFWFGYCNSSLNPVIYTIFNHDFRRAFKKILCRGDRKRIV

`CC(C)C[C@@H](N)C(=O)Nc1ccc(-c2cnco2)c(OC(F)F)c1` showed an IC50 [1] of 1060 nM, an Activity (Rattus norvegicus [2]) of 90% and an inhibition [3] of 13%. The inhibition [4] was 80%, the IC50 [5] was > 30000 nM and the concentration [6] was 0.9 µM. It also gave an Activity [7] of 31%, a concentration [8] of 37 µM and an Activity [9] of 3.8%. For the same compound, the Kp uu at 4 h [10] was 0.7, the Time (Mus musculus [11]) was 18 s and the Activity [12] was 8.4%. For the same compound, the IC50 [13] was 507 nM, the “Drug uptake(free)” value [14] was 0.03 µM and the Activity [15] was 6.2%. It also gave an inhibition [16] of 90%, a Papp at 4 h [17] of 91.8 ×10⁻⁶ cm/s and a solubility [18] of 5850 µg/mL (≈ 17.2 mM). The remaining at 10 min, 0.5 µM [19] was 68%, the concentration [20] was 0.4 µM and the Activity (Mus musculus [21]) was “Active”. It also gave an Activity [22] of 12%, a solubility [23] of 600 µg/mL (≈ 1.77 mM) and an Activity [24] of 13%. The concentration at 3.167 h [25] was 7.4 µM, the “Cp(f)” value [26] was 0.01 µM and the concentration [27] was 33 µM. The Activity (Rattus norvegicus [28]) was 49%, the Activity (Mus musculus [29]) was “Active” and the IC50 [30] was 120 nM. For the same compound, the “Drug uptake(free)” value [31] was 0.92 µM, the Activity [32] was 6.2% and the IC50 [33] was > 30000 nM. The IC50 [34] was > 30000 nM, the ED50 [35] was 6 mg/kg and the Kp [36] was 1.04.
